Reference: US8933230B2, “Phosphorus-containing group-substituted quinoline, its preparation process, medical composition containing the compounds and application” (priority 2011, dated 2015)

Assays:
Assay in all cases: KinomeScan kinase panel
Assay type in all cases: binding
PKNB (M. tuberculosis) = target: T1, PKNB (M. tuberculosis) (Mycobacterium tuberculosis, UniProt P9WI81)
T1 construct: purchased DiscoveRx Corporation (KinomeScan)

FGFR1 = target: T2, FGFR1 (Homo sapiens, UniProt P11362)
T2 construct: purchased DiscoveRx Corporation (KinomeScan)
Outline: (§1)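 Compound is added at 1000 nM to each assay of the KinomeScan 442-kinase panel. Inhibitory effect is then recorded per kinase.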

MYLK4 = target: T3, MYLK4 (Homo sapiens, UniProt Q86YV6)
T3 construct: purchased DiscoveRx Corporation (KinomeScan)
Outline: as §1

FLT3(ITD) = test system: FLT3(ITD)
Outline: as §1

EGFR(E746-A750del) = target: T4, EGFR(E746-A750del) (Homo sapiens, UniProt P00533, DEL746-750)
T4 construct: purchased DiscoveRx Corporation (KinomeScan)
Outline: as §1

PKN2 = target: T5, PKN2 (Homo sapiens, UniProt Q16513)
T5 construct: purchased DiscoveRx Corporation (KinomeScan)
Outline: as §1

ZAP7C = target: T6, ZAP7C (Homo sapiens, UniProt P43403)
T6 construct: purchased DiscoveRx Corporation (KinomeScan service)
Outline: as §1

PRKG1 = target: T7, PRKG1 (Homo sapiens, UniProt Q13976)
T7 construct: purchased DiscoveRx Corporation (KinomeScan)
T7 sequence (Q13976 whole entry): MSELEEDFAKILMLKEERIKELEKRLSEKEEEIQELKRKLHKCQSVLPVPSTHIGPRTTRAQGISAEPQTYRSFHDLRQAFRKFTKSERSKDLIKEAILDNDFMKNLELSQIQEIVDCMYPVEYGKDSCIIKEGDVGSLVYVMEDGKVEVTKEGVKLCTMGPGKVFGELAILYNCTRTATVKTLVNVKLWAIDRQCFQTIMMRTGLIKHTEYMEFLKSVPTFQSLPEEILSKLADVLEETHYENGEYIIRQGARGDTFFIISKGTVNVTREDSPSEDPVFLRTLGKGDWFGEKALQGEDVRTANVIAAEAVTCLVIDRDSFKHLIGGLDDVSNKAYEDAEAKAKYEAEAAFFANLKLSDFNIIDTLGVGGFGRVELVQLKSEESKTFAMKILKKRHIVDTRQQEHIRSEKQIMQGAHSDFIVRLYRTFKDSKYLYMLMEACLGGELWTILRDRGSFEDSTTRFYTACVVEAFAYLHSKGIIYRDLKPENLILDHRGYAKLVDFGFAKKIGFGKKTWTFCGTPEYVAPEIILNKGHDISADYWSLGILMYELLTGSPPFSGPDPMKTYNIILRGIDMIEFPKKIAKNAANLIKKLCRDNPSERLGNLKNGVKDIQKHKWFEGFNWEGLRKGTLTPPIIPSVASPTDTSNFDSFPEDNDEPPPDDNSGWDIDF
Outline: as §1

NEK7 = target: T8, NEK7 (Homo sapiens, UniProt Q8TDX7)
T8 construct: purchased DiscoveRx Corporation (KinomeScan panel)
Outline: as §1

EGFR(L747-S752del,P753S) = target: T9, EGFR(L747-S752del,P753S) (Homo sapiens, UniProt P00533, DEL747-752/P753S)
T9 construct: purchased DiscoveRx Corporation (KinomeScan)
Outline: as §1

EPHA3 = target: T10, EPHA3 (Homo sapiens, UniProt P29320)
T10 construct: purchased DiscoveRx Corporation (KinomeScan)
Outline: as §1

PKMYT1 = target: T11, PKMYT1 (Homo sapiens, UniProt Q99640)
T11 construct: purchased DiscoveRx Corporation (KinomeScan)
Outline: as §1

PDPK1 = target: T12, PDPK1 (Homo sapiens, UniProt O15530)
T12 construct: purchased DiscoveRx Corporation (KinomeScan panel)
Outline: as §1

[1] = target: T13, RSK3(Kin.Dom.1-N-terminal) (Homo sapiens, UniProt Q15349)
T13 construct: Kin.Dom.1; purchased DiscoveRx Corporation (KinomeScan)
T13 sequence (Q15349 59-318 limits assumed): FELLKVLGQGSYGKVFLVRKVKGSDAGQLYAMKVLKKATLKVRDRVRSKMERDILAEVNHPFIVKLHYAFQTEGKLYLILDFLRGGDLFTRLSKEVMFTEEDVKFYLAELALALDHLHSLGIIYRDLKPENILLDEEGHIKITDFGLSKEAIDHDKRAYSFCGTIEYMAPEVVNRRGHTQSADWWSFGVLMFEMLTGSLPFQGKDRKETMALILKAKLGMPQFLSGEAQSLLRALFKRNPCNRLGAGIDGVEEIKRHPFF
Outline: as §1

RIOK3 = target: T14, RIOK3 (Homo sapiens, UniProt O14730)
T14 construct: purchased DiscoveRx Corporation
Outline: as §1

TGFBR2 = target: T15, TGFBR2 (Homo sapiens, UniProt P37173)
T15 construct: purchased DiscoveRx Corporation (KinomeScan)
T15 sequence (P37173 23-567): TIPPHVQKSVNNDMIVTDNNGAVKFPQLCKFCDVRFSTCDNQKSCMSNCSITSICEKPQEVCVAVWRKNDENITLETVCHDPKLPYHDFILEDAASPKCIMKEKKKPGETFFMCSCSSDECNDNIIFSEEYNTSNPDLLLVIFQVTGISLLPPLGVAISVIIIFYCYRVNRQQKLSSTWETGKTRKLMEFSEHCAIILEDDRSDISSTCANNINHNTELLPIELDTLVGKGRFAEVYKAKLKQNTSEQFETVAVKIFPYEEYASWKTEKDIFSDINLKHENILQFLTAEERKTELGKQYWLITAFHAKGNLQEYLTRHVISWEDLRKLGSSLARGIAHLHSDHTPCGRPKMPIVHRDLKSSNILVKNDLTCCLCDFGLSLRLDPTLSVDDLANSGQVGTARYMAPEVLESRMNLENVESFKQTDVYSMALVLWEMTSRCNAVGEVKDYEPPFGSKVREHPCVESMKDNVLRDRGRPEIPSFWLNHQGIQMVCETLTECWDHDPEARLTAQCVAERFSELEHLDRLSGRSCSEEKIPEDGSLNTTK
Outline: as §1

MYLK = target: T16, MYLK (Homo sapiens, UniProt Q15746)
T16 construct: purchased DiscoveRx Corporation (KinomeScan)
Outline: as §1

PYK2 = target: T17, PYK2 (Homo sapiens, UniProt Q14289)
T17 construct: purchased DiscoveRx Corporation
T17 sequence (Q14289 whole entry): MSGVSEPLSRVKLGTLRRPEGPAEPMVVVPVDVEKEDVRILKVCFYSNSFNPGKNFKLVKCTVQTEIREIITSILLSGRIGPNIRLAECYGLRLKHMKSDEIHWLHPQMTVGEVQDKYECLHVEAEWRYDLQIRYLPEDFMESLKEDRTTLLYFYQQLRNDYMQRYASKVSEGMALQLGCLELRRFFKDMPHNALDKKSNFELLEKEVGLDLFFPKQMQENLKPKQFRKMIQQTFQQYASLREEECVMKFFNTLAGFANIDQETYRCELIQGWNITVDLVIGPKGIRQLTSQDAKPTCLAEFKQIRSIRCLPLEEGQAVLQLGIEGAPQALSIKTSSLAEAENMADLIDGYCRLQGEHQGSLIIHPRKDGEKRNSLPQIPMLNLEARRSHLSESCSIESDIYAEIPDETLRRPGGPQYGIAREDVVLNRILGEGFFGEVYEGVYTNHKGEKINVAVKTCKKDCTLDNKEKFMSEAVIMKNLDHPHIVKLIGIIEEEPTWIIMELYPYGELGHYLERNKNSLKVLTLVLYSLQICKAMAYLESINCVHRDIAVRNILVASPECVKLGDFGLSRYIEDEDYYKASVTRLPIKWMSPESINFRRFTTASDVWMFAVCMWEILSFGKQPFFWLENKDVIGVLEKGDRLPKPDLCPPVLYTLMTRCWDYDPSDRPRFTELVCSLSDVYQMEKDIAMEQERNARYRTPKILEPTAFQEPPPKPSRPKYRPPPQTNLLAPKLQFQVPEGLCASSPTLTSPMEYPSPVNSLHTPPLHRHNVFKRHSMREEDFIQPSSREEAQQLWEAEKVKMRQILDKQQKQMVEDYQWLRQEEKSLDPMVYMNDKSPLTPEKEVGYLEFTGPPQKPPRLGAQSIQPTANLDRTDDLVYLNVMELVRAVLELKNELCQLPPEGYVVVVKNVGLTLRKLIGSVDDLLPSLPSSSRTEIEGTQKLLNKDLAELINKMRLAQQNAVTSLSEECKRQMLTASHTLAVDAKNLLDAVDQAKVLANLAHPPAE
Outline: as §1

EIF2AK1 = target: T18, EIF2AK1 (Homo sapiens, UniProt Q9BQI3)
T18 construct: purchased DiscoveRx Corporation (KinomeScan)
Outline: as §1

MLK2 = target: T19, MLK2 (Homo sapiens, UniProt Q02779)
T19 construct: purchased DiscoveRx Corporation (KinomeScan)
Outline: as §1

CDC2L5 = target: T20, CDC2L5 (Homo sapiens, UniProt Q14004)
T20 construct: purchased DiscoveRx Corporation (KinomeScan)
T20 sequence (Q14004 whole entry): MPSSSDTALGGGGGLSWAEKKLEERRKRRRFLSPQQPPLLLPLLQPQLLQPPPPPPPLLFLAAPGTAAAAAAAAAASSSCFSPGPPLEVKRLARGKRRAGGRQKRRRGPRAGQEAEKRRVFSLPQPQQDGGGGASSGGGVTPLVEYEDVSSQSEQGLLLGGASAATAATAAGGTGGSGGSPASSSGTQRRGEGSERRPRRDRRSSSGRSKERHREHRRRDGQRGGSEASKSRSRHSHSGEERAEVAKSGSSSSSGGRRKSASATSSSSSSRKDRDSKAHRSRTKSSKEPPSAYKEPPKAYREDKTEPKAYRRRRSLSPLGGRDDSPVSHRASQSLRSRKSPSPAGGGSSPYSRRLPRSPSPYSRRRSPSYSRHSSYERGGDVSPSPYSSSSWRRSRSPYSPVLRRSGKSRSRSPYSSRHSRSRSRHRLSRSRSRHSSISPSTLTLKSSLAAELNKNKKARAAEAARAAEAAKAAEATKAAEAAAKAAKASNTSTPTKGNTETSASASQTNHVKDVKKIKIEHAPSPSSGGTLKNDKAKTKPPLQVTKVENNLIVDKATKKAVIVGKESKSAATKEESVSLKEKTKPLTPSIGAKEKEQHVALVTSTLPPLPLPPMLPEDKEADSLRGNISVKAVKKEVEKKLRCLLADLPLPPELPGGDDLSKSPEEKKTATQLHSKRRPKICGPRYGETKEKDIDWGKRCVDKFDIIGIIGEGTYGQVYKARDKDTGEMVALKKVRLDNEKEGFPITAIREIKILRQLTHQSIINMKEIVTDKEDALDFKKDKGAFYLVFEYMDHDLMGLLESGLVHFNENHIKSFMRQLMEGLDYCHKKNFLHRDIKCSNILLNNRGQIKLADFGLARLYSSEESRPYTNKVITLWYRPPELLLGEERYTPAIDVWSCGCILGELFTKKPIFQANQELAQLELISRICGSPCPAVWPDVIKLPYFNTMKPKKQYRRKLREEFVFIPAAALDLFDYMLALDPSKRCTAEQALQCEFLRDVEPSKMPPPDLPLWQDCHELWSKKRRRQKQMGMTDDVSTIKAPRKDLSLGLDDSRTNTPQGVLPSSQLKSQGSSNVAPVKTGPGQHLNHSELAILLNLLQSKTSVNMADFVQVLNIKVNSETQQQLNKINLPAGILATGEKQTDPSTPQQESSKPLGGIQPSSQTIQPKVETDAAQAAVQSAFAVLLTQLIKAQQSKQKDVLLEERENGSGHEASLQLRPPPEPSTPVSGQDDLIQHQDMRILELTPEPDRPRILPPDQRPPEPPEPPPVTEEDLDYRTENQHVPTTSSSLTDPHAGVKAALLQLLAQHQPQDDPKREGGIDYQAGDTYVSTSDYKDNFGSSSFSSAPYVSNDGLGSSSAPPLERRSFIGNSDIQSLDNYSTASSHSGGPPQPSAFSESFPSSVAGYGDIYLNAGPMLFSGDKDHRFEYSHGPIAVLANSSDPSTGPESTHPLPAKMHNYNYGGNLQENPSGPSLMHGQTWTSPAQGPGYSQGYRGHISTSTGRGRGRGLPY
Outline: as §1

NEK5 = target: T21, NEK5 (Homo sapiens, UniProt Q6P3R8)
T21 construct: purchased DiscoveRx Corporation (KinomeScan panel)
Outline: as §1

CDKL5 = target: T22, CDKL5 (Homo sapiens, UniProt O76039)
T22 construct: purchased DiscoveRx Corporation (KinomeScan)
Outline: as §1

EPHA4 = target: T23, EPHA4 (Homo sapiens, UniProt P54764)
T23 construct: purchased DiscoveRx Corporation (KinomeScan)
Outline: as §1

PIK3CB = target: T24, PIK3CB (Homo sapiens, UniProt P42338)
T24 construct: purchased DiscoveRx Corporation (KinomeScan)
Outline: as §1

STK35 = target: T25, STK35 (Homo sapiens, UniProt Q8TDR2)
T25 construct: purchased DiscoveRx Corporation (KinomeScan)
Outline: as §1

[2] = target: T26, RSK4(Kin.Dom.2-C-terminal) (Homo sapiens, UniProt Q9UK32)
T26 construct: Kin.Dom.2; purchased DiscoveRx Corporation (KinomeScan)
Outline: as §1

PRKD2 = target: T27, PRKD2 (Homo sapiens, UniProt Q9BZL6)
T27 construct: purchased DiscoveRx Corporation (KinomeScan)
T27 sequence (Q9BZL6 whole entry): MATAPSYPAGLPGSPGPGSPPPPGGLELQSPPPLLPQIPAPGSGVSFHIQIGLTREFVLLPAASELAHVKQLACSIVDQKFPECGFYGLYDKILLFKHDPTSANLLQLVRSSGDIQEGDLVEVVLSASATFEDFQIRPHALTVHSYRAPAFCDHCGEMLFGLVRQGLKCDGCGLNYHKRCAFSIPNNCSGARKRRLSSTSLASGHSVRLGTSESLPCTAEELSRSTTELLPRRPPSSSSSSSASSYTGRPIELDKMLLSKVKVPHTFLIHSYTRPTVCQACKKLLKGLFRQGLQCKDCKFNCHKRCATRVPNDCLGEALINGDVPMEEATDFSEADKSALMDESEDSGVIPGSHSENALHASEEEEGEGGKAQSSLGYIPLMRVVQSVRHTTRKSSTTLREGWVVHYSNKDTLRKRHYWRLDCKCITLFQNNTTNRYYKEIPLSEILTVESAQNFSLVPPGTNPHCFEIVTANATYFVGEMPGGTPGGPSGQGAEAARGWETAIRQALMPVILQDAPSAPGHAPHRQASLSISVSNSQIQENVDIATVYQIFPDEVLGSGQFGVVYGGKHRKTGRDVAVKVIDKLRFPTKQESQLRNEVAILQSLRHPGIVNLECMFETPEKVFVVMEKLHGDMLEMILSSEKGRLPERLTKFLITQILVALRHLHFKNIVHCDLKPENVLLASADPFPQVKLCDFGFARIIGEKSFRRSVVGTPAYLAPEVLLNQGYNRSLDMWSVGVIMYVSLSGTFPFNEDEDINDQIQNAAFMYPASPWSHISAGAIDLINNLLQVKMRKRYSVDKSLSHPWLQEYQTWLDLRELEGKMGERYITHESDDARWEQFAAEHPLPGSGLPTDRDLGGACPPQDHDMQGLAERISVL
Outline: as §1

ACVR1 = target: T28, ACVR1 (Homo sapiens, UniProt Q04771)
T28 construct: purchased DiscoveRx Corporation (KinomeScan)
Outline: as §1

DAPK2 = target: T29, DAPK2 (Homo sapiens, UniProt Q9UIK4)
T29 construct: purchased DiscoveRx Corporation (KinomeScan)
Outline: as §1

CLK4 = target: T30, CLK4 (Homo sapiens, UniProt Q9HAZ1)
T30 construct: purchased DiscoveRx Corporation (KinomeScan)
Outline: as §1

YSK1 = target: T31, YSK1 (Homo sapiens, UniProt O00506)
T31 construct: purchased DiscoveRx Corporation (KinomeScan service)
Outline: as §1

CCOP(=O)(CN1CCC(COc2cc3nccc(Oc4ccc(NC(=O)C5(C(=O)Nc6ccc(F)cc6)CC5)cc4F)c3cc2OC)CC1)OCC [Example 10, N1-[4-[[7-[[1-(diethoxyphosphorylmethyl)-4-piperidinyl]methoxyl]-6-methoxyl-4-quinolyl]oxyl]-3-fluorophenyl]-N1′-(4-fluorophenyl)cyclopropane-1,1-dicarboxamide]
% Ctrl@1000 nM (PKNB (M. tuberculosis)): 96 % Ctrl
% Ctrl@1000 nM (FGFR1): 100 % Ctrl
% Ctrl@1000 nM (MYLK4): 100 % Ctrl
% Ctrl@1000 nM (FLT3(ITD)): 2.8 % Ctrl
% Ctrl@1000 nM (EGFR(E746-A750del)): 92 % Ctrl
% Ctrl@1000 nM (PKN2): 2.6 % Ctrl
% Ctrl@1000 nM (ZAP7C): 81 % Ctrl
% Ctrl@1000 nM (PRKG1): 100 % Ctrl
% Ctrl@1000 nM (NEK7): 100 % Ctrl
% Ctrl@1000 nM (EGFR(L747-S752del,P753S)): 67 % Ctrl
% Ctrl@1000 nM (EPHA3): 6 % Ctrl
% Ctrl@1000 nM (PKMYT1): 100 % Ctrl
% Ctrl@1000 nM (PDPK1): 100 % Ctrl
% Ctrl@1000 nM [1]: 100 % Ctrl
% Ctrl@1000 nM (RIOK3): 100 % Ctrl
% Ctrl@1000 nM (TGFBR2): 100 % Ctrl
% Ctrl@1000 nM (MYLK): 100 % Ctrl
% Ctrl@1000 nM (PYK2): 19 % Ctrl
% Ctrl@1000 nM (EIF2AK1): 100 % Ctrl
% Ctrl@1000 nM (MLK2): 78 % Ctrl
% Ctrl@1000 nM (CDC2L5): 100 % Ctrl
% Ctrl@1000 nM (NEK5): 97 % Ctrl
% Ctrl@1000 nM (CDKL5): 100 % Ctrl
% Ctrl@1000 nM (EPHA4): 4 % Ctrl
% Ctrl@1000 nM (PIK3CB): 100 % Ctrl
% Ctrl@1000 nM (STK35): 82 % Ctrl
% Ctrl@1000 nM [2]: 91 % Ctrl
% Ctrl@1000 nM (PRKD2): 100 % Ctrl
% Ctrl@1000 nM (ACVR1): 100 % Ctrl
% Ctrl@1000 nM (DAPK2): 100 % Ctrl
% Ctrl@1000 nM (CLK4): 46 % Ctrl
% Ctrl@1000 nM (YSK1): 57 % Ctrl
